Results reported in PubChem BioAssay AID2060626 (Molecular Pharmacology Branch, DTP, NCI, 2025).
Values joined by “and” are separate entries in the source; they are usually repeats but may differ in a detail not shown here. Equal entries are not always repeated.

Test system: 168753-222-R-J1-PDC complex spheroid viability
Test: Anticancer human tumor 168753-222-R-J1-PDC patient-derived bladder carcinoma cell line growth inhibition [CLK]
Details: for viability, T/C: stronger effect = lower value
In short: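 Patient-derived tumor cells grown as complex spheroids with HUVEC endothelial cells and mesenchymal stem cells, treated with drug combinations. Concentrations descend in half-log steps from near clinical Cmax, or from 10 microM if Cmax unknown.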

[1] = curve of first compound, second compound 0.0316 µM
[2] = curve of first compound, second compound 0.1 µM
[3] = curve of first compound, second compound 0.316 µM
[4] = curve of first compound, second compound 1 µM
[5] = curve of first compound, second compound 3.16 µM
[6] = curve of first compound, second compound 10 µM
[7] = second compound 0.0316 µM, first compound 0.0316 µM
[8] = second compound 0.0316 µM, first compound 0.1 µM
[9] = second compound 0.0316 µM, first compound 0.316 µM
[10] = second compound 0.0316 µM, first compound 1 µM
[11] = second compound 0.1 µM, first compound 0.0316 µM
[12] = second compound 0.1 µM, first compound 0.1 µM
[13] = second compound 0.1 µM, first compound 0.316 µM
[14] = second compound 0.1 µM, first compound 1 µM
[15] = second compound 0.316 µM, first compound 0.0316 µM
[16] = second compound 0.316 µM, first compound 0.1 µM
[17] = second compound 0.316 µM, first compound 0.316 µM
[18] = second compound 0.316 µM, first compound 1 µM
[19] = second compound 1 µM, first compound 0.0316 µM
[20] = second compound 1 µM, first compound 0.1 µM
[21] = second compound 1 µM, first compound 0.316 µM
[22] = second compound 1 µM, first compound 1 µM
[23] = second compound 3.16 µM, first compound 0.0316 µM
[24] = second compound 3.16 µM, first compound 0.1 µM
[25] = second compound 3.16 µM, first compound 0.316 µM
[26] = second compound 3.16 µM, first compound 1 µM
[27] = second compound 10 µM, first compound 0.0316 µM
[28] = second compound 10 µM, first compound 0.1 µM
[29] = second compound 10 µM, first compound 0.316 µM
[30] = second compound 10 µM, first compound 1 µM
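Further: viability measured after seven days of drug exposure.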
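Wherever viability, T/C is given: luminescence signal used as surrogate for viable cell amount; 100% = DMSO vehicle control wells.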

For Nc1ccccc1NC(=O)c1ccc(CNC(=O)OCc2cccnc2)cc1 + CNC(=O)c1ccc(Nc2nc(OC3CCCC3)c3c(-c4ccc5nc(C)oc5c4)c[nH]c3n2)c(OC)c1, the IC50 [1] was 5880 nM, the IC50 [2] was 5460 nM and the IC50 [3] was 4110 nM. For the same molecule, the IC50 [4] was under 31.6 nM, the IC50 [5] was under 31.6 nM and the IC50 [6] was under 31.6 nM. It also gave a viability, T/C [7] of 99.1%, a viability, T/C [8] of 101% and a viability, T/C [9] of 90.6%. For the same molecule, the viability, T/C [10] was 90.6%, the viability, T/C (second compound 0.0316 µM, first compound 3.16 µM) was 84.4% and the viability, T/C (second compound 0.0316 µM, first compound 10 µM) was 21.6%. The viability, T/C [11] was 98.8%, the viability, T/C [12] was 84.8% and the viability, T/C [13] was 85.8%. The viability, T/C [14] was 82.9%, the viability, T/C (second compound 0.1 µM, first compound 3.16 µM) was 81.2% and the viability, T/C (second compound 0.1 µM, first compound 10 µM) was 15.4%. For the same molecule, the viability, T/C [15] was 80%, the viability, T/C [16] was 68.7% and the viability, T/C [17] was 62.2%. The viability, T/C [18] was 78.3%, the viability, T/C (second compound 0.316 µM, first compound 3.16 µM) was 63.1% and the viability, T/C (second compound 0.316 µM, first compound 10 µM) was 6.28%. For the same molecule, the viability, T/C [19] was 33.9%, the viability, T/C [20] was 39% and the viability, T/C [21] was 36.5%. For the same molecule, the viability, T/C [22] was 41.4%, the viability, T/C (second compound 1 µM, first compound 3.16 µM) was 44.7% and the viability, T/C (second compound 1 µM, first compound 10 µM) was 4.99%. It also gave a viability, T/C [23] of 27.1%, a viability, T/C [24] of 22.3% and a viability, T/C [25] of 29.8%. It also gave a viability, T/C [26] of 41.7%, a viability, T/C (second compound 3.16 µM, first compound 3.16 µM) of 25.7% and a viability, T/C (second compound 3.16 µM, first compound 10 µM) of 3.07%. For the same molecule, the viability, T/C [27] was 19.5%, the viability, T/C [28] was 21% and the viability, T/C [29] was 28.1%. It also gave a viability, T/C [30] of 27.5%, a viability, T/C (second compound 10 µM, first compound 3.16 µM) of 21.1% and a viability, T/C (second compound 10 µM, first compound 10 µM) of 0.71%.
In the case of C=C(F)C(=O)N1CCN(c2nc(OCC3CCCN3C)nc3c2CCN(c2cccc4cccc(Cl)c24)C3)CC1CC#N (stereo not drawn), the viability, T/C (compound 0.0316 µM) is reported as 99.3% and 97.7%, the viability, T/C (compound 0.1 µM) is reported as 93.6% and 102% and the viability, T/C (compound 0.316 µM) is reported as 91.3% and 87.2%. The viability, T/C (compound 1 µM) was 95.6% and 87.8%, the viability, T/C (compound 3.16 µM) was 93.2% and 67.9% and the viability, T/C (compound 10 µM) was 70.9% and 16.5%. The IC50 (curve of compound) was > 10000 nM and 4650 nM.
In the case of CCc1c2c(nc3ccc(O)cc13)-c1cc3c(c(=O)n1C2)COC(=O)[C@]3(O)CC + CNC(=O)c1ccc(Nc2nc(OC3CCCC3)c3c(-c4ccc5nc(C)oc5c4)c[nH]c3n2)c(OC)c1, the IC50 [1] is reported as 118 nM, the IC50 [2] is reported as 201 nM and the IC50 [3] is reported as 51.8 nM. It also gave an IC50 [4] of under 3.16 nM, an IC50 [5] of under 3.16 nM and an IC50 [6] of under 3.16 nM. For the same molecule, the viability, T/C (second compound 0.0316 µM, first compound 0.00316 µM) was 109%, the viability, T/C (second compound 0.0316 µM, first compound 0.01 µM) was 96.2% and the viability, T/C [7] was 77.2%. The viability, T/C [8] was 48.9%, the viability, T/C [9] was 35.8% and the viability, T/C [10] was 14.6%. It also gave a viability, T/C (second compound 0.1 µM, first compound 0.00316 µM) of 99.1%, a viability, T/C (second compound 0.1 µM, first compound 0.01 µM) of 87.4% and a viability, T/C [11] of 87.8%. For the same molecule, the viability, T/C [12] was 50.8%, the viability, T/C [13] was 48.8% and the viability, T/C [14] was 12.8%. It also gave a viability, T/C (second compound 0.316 µM, first compound 0.00316 µM) of 82.1%, a viability, T/C (second compound 0.316 µM, first compound 0.01 µM) of 88.2% and a viability, T/C [15] of 62.5%. For the same molecule, the viability, T/C [16] was 30.1%, the viability, T/C [17] was 24.6% and the viability, T/C [18] was 8.79%. The viability, T/C (second compound 1 µM, first compound 0.00316 µM) was 35.1%, the viability, T/C (second compound 1 µM, first compound 0.01 µM) was 29.9% and the viability, T/C [19] was 17.4%. The viability, T/C [20] was 14.1%, the viability, T/C [21] was 14.8% and the viability, T/C [22] was 11.5%. For the same molecule, the viability, T/C (second compound 3.16 µM, first compound 0.00316 µM) was 18.8%, the viability, T/C (second compound 3.16 µM, first compound 0.01 µM) was 18.2% and the viability, T/C [23] was 13%. For the same molecule, the viability, T/C [24] was 12.1%, the viability, T/C [25] was 13.3% and the viability, T/C [26] was 10.3%. The viability, T/C (second compound 10 µM, first compound 0.00316 µM) was 16.9%, the viability, T/C (second compound 10 µM, first compound 0.01 µM) was 15.3% and the viability, T/C [27] was 16.1%. For the same molecule, the viability, T/C [28] was 12.6%, the viability, T/C [29] was 13.1% and the viability, T/C [30] was 7.91%.
For COC1C=CCC(C)C(C)S(=O)(=O)NC(=O)c2ccc3c(c2)N(CC2CCC21)CC1(CCCc2cc(Cl)ccc21)CO3 (stereo not drawn), the viability, T/C (compound 0.0316 µM) was 88.5% and 107%, the viability, T/C (compound 0.1 µM) was 98.9% and 95.5% and the viability, T/C (compound 0.316 µM) was 61.2% and 104%. For the same molecule, the viability, T/C (compound 1 µM) was 53.9% and 76%, the viability, T/C (compound 3.16 µM) was 35.8% and 49.4% and the viability, T/C (compound 10 µM) was 20.4% and 19%. The IC50 (curve of compound) was 1100 nM and 2930 nM.
